The results in this text go back to ChEMBL document CHEMBL1133931, “Anti-AIDS agents. Part 47: Synthesis and anti-HIV activity of 3-substituted 3',4'-Di-O-(S)-camphanoyl-(3'R,4'R)-(+)-cis-khellactone derivatives” (Bioorg Med Chem Lett, 2001).

A short description of data set [1]: Therapeutic index (IC50/EC50) of compound was determined in acutely infected H9 cell. It counts as cell-based. The following applies: human, acutely infected H9 cells; read-out: TI.
Data set [2] has as its system H9. The data set is described as follows: Inhibitory concentration against HIV-1 replication in acutely infected H9 lymphocytes. It counts as functional, cell-based. As to conditions: Homo sapiens.
Data set [3] has as its system H9. Briefly: Inhibitory concentration required to inhibit uninfected H9 cell growth by 50%. It counts as functional, cell-based. As to conditions: Homo sapiens.

For the compound `CC1(C)Oc2ccc3ccc(=O)oc3c2[C@@H](OC(=O)C23CCC(C)(C(=O)O2)C3(C)C)[C@H]1OC(=O)C12CCC(C)(C(=O)O1)C2(C)C` (stereo partly drawn), the selectivity ratio in data set [1] came out at 137000.
For the compound `CCN(CC)Cc1cc2ccc3c(c2oc1=O)[C@@H](OC(=O)C12CCC(C)(C(=O)O1)C2(C)C)[C@@H](OC(=O)C12CCC(C)(C(=O)O1)C2(C)C)C(C)(C)O3` (stereo partly drawn), the EC50 with H9 [2] stood at 690 nM. The compound further displayed an IC50 with H9 [3] of 43000 nM. In data set [1], the selectivity ratio worked out at 62.
Taken in the same sequence, the figures for `CC1(C)Oc2ccc3cc(C(Br)Br)c(=O)oc3c2[C@@H](OC(=O)C23CCC(C)(C(=O)O2)C3(C)C)[C@H]1OC(=O)C12CCC(C)(C(=O)O1)C2(C)C` (stereo partly drawn) were 0.119 nM, 3200 nM and 26900.
For the compound `CC1(C)Oc2ccc3cc(CO)c(=O)oc3c2[C@@H](OC(=O)C23CCC(C)(C(=O)O2)C3(C)C)[C@H]1OC(=O)C12CCC(C)(C(=O)O1)C2(C)C` (stereo partly drawn), it took 0.188 nM to reach a half-maximal effect with H9 [2] (EC50). This compound also displayed an IC50 in the data set with H9 [3] of 35400 nM. In addition, the selectivity ratio in data set [1] amounted to 188000.
For `CC1(C)Oc2ccc3cc(CBr)c(=O)oc3c2[C@@H](OC(=O)C23CCC(C)(C(=O)O2)C3(C)C)[C@H]1OC(=O)C12CCC(C)(C(=O)O1)C2(C)C` (stereo partly drawn), in that order: 85.4 nM, 3380 nM and 40.
Regarding `CC1(C)Oc2ccc3cc(CN)c(=O)oc3c2[C@@H](OC(=O)C23CCC(C)(C(=O)O2)C3(C)C)[C@H]1OC(=O)C12CCC(C)(C(=O)O1)C2(C)C` (stereo partly drawn), in the data set with H9 [2], the 50% effective concentration (EC50) came to 390 nM. The compound also registered an IC50 with H9 [3] of 32800 nM.
Consider `CC(=O)OCc1cc2ccc3c(c2oc1=O)[C@@H](OC(=O)C12CCC(C)(C(=O)O1)C2(C)C)[C@@H](OC(=O)C12CCC(C)(C(=O)O1)C2(C)C)C(C)(C)O3` (stereo partly drawn), for which the EC50 with H9 [2] came out at 1.03 nM. Besides, the midpoint of inhibition in the data set on H9 [3], the IC50, lay at 3340 nM. Further, the selectivity ratio in data set [1] is 3240.

As usually defined, the EC50 is the midpoint of the concentration-response curve. A high value points to a less potent agent. The IC50 is the point on the concentration scale where inhibition reaches its midpoint.
